Results taken from patent publication US20240122179A1, “AUXINIC HERBICIDES AND METHODS OF USE THEREOF” (CORTEVA AGRISCIENCE LLC, priority 2021, published 2024).
Read-outs that look alike come from different tables or passages of the source.

Columns and labels:
[1] = test system: Ambrosia artemisiifolia (AMBEL); assay: Postemergence herbicide evaluation, percent reduction in plant size vs untreated control, 21 days after treatment; format: in vivo, Ambrosia artemisiifolia (common ragweed); details: post-emergence, 504 h, AMBEL, postemergence, read-out: Control/Injury; for pest or weed control at 140 g/ha: rate 140 g ae/ha; for pest or weed control at 280 g/ha: rate 280 g ae/ha
Outline: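 Test compounds at 140 or 280 g ae/ha were applied by track sprayer (187 L/ha, spray solution containing acetone/DMSO, isopropanol, crop oil, surfactant) to 2–8 leaf plants, 3–4 replicates. Plants were kept in a greenhouse at 25–28 °C. Size reduction was scored against untreated controls at 21 days.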

[2] = test system: Conyza canadensis (L.) (ERICA); assay: as above; format: in vivo, Conyza canadensis (L.) (Horseweed); details: Erigeron canadensis, post-emergence, 504 h, ERICA, postemergence, read-out: Control/Injury; for pest or weed control at 140 g/ha: rate 140 g ae/ha; for pest or weed control at 280 g/ha: rate 280 g ae/ha
Outline: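 Track-sprayer applications (187 L/ha, 276 kPa) of 140 or 280 g ae/ha, technical material dissolved in acetone/DMSO then diluted with crop oil and surfactant-containing solvent, to greenhouse Conyza canadensis at 2-8 leaves. After 21 days, size reduction relative to untreated plants was recorded; 3-4 randomized replicates.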

Kochia scoparia (KCHSC) = assay: as above; format: in vivo; details: Bassia scoparia, post-emergence, 504 h, KCHSC, postemergence, read-out: Control/Injury; for pest or weed control at 140 g/ha: rate 140 g ae/ha; for pest or weed control at 280 g/ha: rate 280 g ae/ha
Outline: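 Values are percent reduction in plant size against an untreated control, measured 21 days after a single postemergence spray at 140 or 280 g ae/ha (187 L/ha, 276 kPa). Treatments used 3-4 randomized complete-block replicates on 2 to 8 leaf-stage plants kept in a 25-28 °C greenhouse, with compounds in acetone/DMSO-based solvent containing crop oil and surfactant.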

Amaranthus rudis (AMATA) = assay: as above; format: in vivo, Amaranthus rudis (tall water hemp); details: Amaranthus tuberculatus, post-emergence, 504 h, AMATA, postemergence, read-out: Control/Injury; for pest or weed control at 140 g/ha: rate 140 g ae/ha; for pest or weed control at 280 g/ha: rate 280 g ae/ha
Outline: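 Growth-reduction values are percent decrease in plant size relative to untreated plants, scored 21 days post-application. Amaranthus rudis (2-8 leaves) received postemergence sprays at 140 or 280 g ae/ha, 187 L/ha, in a mixed acetone/DMSO/water/isopropanol carrier with crop oil concentrate. Greenhouse conditions were 25-28° C, 50-60% RH; 3-4 randomized replicates.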

Glycine max = assay: whole plant or invertebrate; details: for plant injury at 140 g/ha / plant injury at 280 g/ha: Glycine max, post-emergence, 504 h, read-out: Control/Injury; for Control/Injury: in vivo
Protocol: Plants were grown in a soil media composed of 90% by volume Promix BX (Premier Tech Horticulture, Quakertown, PA) and 10% Profile Greens Grade (Profile Products LLC, Buffalo Grove, IL). Promix BX contains approximately 83% Sphagnum Peat Moss, 13% Perlite, 5% vermiculite, and proprietary amounts of limestone, starter fertilizer, and wetting agent. Profile Greens Grade is a sand-sized granule formed from calcining illite and montmorillonite clay. Several seeds of each species were planted in 10 cm square pots and top watered twice daily. Plant material was propagated in a warm greenhouse with temperature ranging from 25 to 28° C. and 50 to 60% relative humidity at the Corteva Global Headquarters (Indianapolis, Indiana, USA). Natural light was supplemented with 1000-watt metal halide overhead lamps with an average illumination of 500 μE m^−2 s^−1 photosynthetic active radiation for 16 consecutive hours each day. Plants were top-watered prior to herbicide application and sub-watered after herbicide application.
Appropriate amounts of test materials were weighed out into glass vials in their technical form to deliver either 140 or 280 g acid equivalent (ae)/ha. The samples were dissolved in 3 ml of Solvent 1. Solvent 1 is 97% acetone and 3% dimethyl sulfoxide and serves as a general-purpose solvent (GPS) for dissolving technical materials. […] The samples were then diluted to their final concentration using 17 ml of solvent 2 for a total of 20 ml of spray solution. Solvent 2 contains 41.58% GPS, 45.53% water, 11.88% isopropyl alcohol, 0.99% crop oil concentrate and 0.02% Trition X-155 surfactant. All percentages are listed on a volume basis. Dicamba diglycolamine was applied as a formulated herbicide, Clarity™ and diluted with solvent 2 to compare all materials in the same spray solution.
Herbicide applications were made to 3 to 4 replicates of each plant species at the 2 to 8 leaf stage, depending on the species. Treatments were applied with a research track-sprayer (Generation III Research Sprayer manufactured by DeVries Manufacturing in Hollandale, MN, USA) calibrated to deliver a spray volume of 187 L/ha. The track-sprayer was fitted with an 8003E nozzle from Spray Systems Company (North Avenue and Schmale Road, P.O. Box 7900, Wheaton, IL 60187), and used a spray pressure of 276 kPa pressure and a speed of 3.1 km/h. The nozzle height was 46 cm above the plant canopy. The experimental design used for the trials was a randomized complete block with 3 or 4 replications per treatment. After application, plants were placed on carts according to the randomization and returned to the greenhouse. Plants were sub-watered after treatment with Indianapolis city water or fertilized three times a week with a commercial fertilizer solution (Jack's Professional 15-5-15 4 Ca 2 Mg fertilizer (manufactured by JR PETERS INC., 6656 Grant Way, Allentown, PA 18106; www.jrpeters.com). Percent visual control assessments were made on a scale of 0 to 100% (where 0 was no control and 100 was complete plant death) at 7, 14, and 21 days after treatment.
In conformity with the methods outlined in Example 49, the effect of representative experimental compounds on the growth of Glycine max was determined at 2 different levels (respectively, 140 and 280 g acid equivalent (ae)/ha) of the experimental actives tested. Plants were treated with one of the compounds, a control plant was not treated. Twenty-one days after treatment, the plants were measured. The data is present as a percent reduction in plant size relative to the untreated control.

[3] = test system: Amaranthus palmeri (AMAPA); assay: Postemergence herbicide evaluation, percent reduction in plant size vs untreated control, 21 days after treatment; format: in vivo, Amaranthus palmeri (Palmer amaranth); details: post-emergence, 504 h, postemergence, read-out: Control/Injury; for pest or weed control at 140 g/ha: rate 140 g ae/ha; for pest or weed control at 280 g/ha: rate 280 g ae/ha
Outline: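 Percent reduction in plant size relative to untreated plants, measured 21 days after track-sprayer application (187 L/ha) of 140 or 280 g ae/ha to Amaranthus palmeri at the 2 to 8 leaf stage. Randomized complete block, 3 or 4 replicates, greenhouse at 25 to 28° C; spray solution acetone/DMSO with isopropanol, water and crop oil concentrate.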

[4] = percent reduction vs untreated control, 21 days after treatment
[5] = R-AMAPA, percent reduction vs untreated control, 21 days after treatment
[6] = percent reduction vs untreated, 21 days after treatment

Structure (SMILES) | pest or weed control at 140 g/ha [1] | pest or weed control at 280 g/ha [1] | pest or weed control at 140 g/ha [2, 4] | pest or weed control at 280 g/ha [2, 4] | pest or weed control at 140 g/ha (Kochia scoparia (KCHSC); [4]) | pest or weed control at 280 g/ha (Kochia scoparia (KCHSC); [4]) | pest or weed control at 140 g/ha (Amaranthus rudis (AMATA)) | pest or weed control at 280 g/ha (Amaranthus rudis (AMATA)) | plant injury at 140 g/ha (Glycine max) | plant injury at 280 g/ha (Glycine max) | pest or weed control at 140 g/ha [3, 5] | pest or weed control at 280 g/ha [3, 5] | pest or weed control at 140 g/ha (Kochia scoparia (KCHSC)) | pest or weed control at 280 g/ha (Kochia scoparia (KCHSC)) | Control/Injury (Glycine max) | other results
CCOC(=O)/C(C#N)=N/OC(=O)c1c(Cl)ccc(Cl)c1OC [Compound A-86] | 88% | 91% | 87% | 95% | 90% | 97% | 63% | 67% | 32% | 25% | 72% | 73% | – | – | – | –
COc1c(Cl)ccc(Cl)c1C(=O)ON1CCCCC1 [Compound A-92] | 92% | 96% | 85% | 92% | 83% | 98% | 63% | 92% | 2% | 4% | 78% | 80% | – | – | – | –
COc1c(Cl)ccc(Cl)c1C(=O)ON1C(=O)c2ccccc2C1=O [Compound A-74] | 77% | 88% | 70% | 83% | – | – | 70% | 90% | 2% | 3% | 68% | 85% | 94% | 97% | – | –
CC/C(C)=N/OC(=O)c1c(Cl)ccc(Cl)c1OC [Compound A-91] | 82% | 96% | 85% | 88% | 78% | 98% | 72% | 78% | 3% | 3% | 72% | 88% | – | – | – | –
COc1c(Cl)ccc(Cl)c1C(=O)Oc1cncnc1 [Compound A-66] | 15% | 15% | 0% | 2% | – | – | 0% | 2% | – | – | 13% | 5% | 0% | 0% | 3 | –
COc1c(Cl)ccc(Cl)c1C(=O)Nc1ncccn1 [Compound A-62] | 83% | 87% | 82% | 93% | – | – | 65% | 76% | – | – | 73% | 92% | 77% | 90% | 3 | –
COc1c(Cl)ccc(Cl)c1C(=O)O/N=C(\N)CCCCC/C(N)=N/OC(=O)c1c(Cl)ccc(Cl)c1OC [Compound A-146] | 83% | 86% | – | – | – | – | 70% | 63% | – | – | 43% | 60% | – | – | 0 | pest or weed control at 140 g/ha [2, 6]: 73%; pest or weed control at 280 g/ha [2, 6]: 63%; pest or weed control at 140 g/ha (Kochia scoparia (KCHSC); [6]): 89%; pest or weed control at 280 g/ha (Kochia scoparia (KCHSC); [6]): 96%
COCCONC(=O)c1c(Cl)ccc(Cl)c1OC [Compound A-95] | – | – | 8% | 17% | 57% | 77% | – | – | 4% | 6% | 42% | 55% | – | – | 15 | pest or weed control at 140 g/ha [2]: 3%; pest or weed control at 280 g/ha [2]: 5%; pest or weed control at 140 g/ha (Kochia scoparia (KCHSC); [6]): 3%; pest or weed control at 280 g/ha (Kochia scoparia (KCHSC); [6]): 3%; pest or weed control at 140 g/ha ([3]; AMAPA): 5%; pest or weed control at 280 g/ha ([3]; AMAPA): 13%
